# Results as given in patent publication US20100311643A1, “USE OF GLP-1 AS A THERAPEUTIC AGENT” (priority 2007, published 2010).
# Tested on: drug-resistant Mycobacterium tuberculosis
# Conditions: drug-resistant Mycobacterium tuberculosis growth; peptide 10 micrograms per ml; seven days
smiles,measurement,value
CC[C@H](C)[C@H](NC(=O)[C@H](Cc1ccccc1)NC(=O)[C@H](CCC(=O)O)NC(=O)[C@H](CCCCN)NC(=O)[C@H](C)NC(=O)[C@H](C)NC(=O)[C@H](CCC(N)=O)NC(=O)CNC(=O)[C@H](CCC(=O)O)NC(=O)[C@H](CC(C)C)NC(=O)[C@H](Cc1ccc(O)cc1)NC(=O)[C@H](CO)NC(=O)[C@H](CO)NC(=O)[C@@H](NC(=O)[C@H](CC(=O)O)NC(=O)[C@H](CO)NC(=O)[C@@H](NC(=O)[C@H](Cc1ccccc1)NC(=O)[C@@H](NC(=O)CNC(=O)[C@H](CCC(=O)O)NC(=O)[C@H](C)NC(=O)[C@H](Cc1c[nH]cn1)NC(=O)[C@H](CCCNC(=N)N)NC(=O)[C@H](CCC(=O)O)NC(=O)[C@H](Cc1ccccc1)NC(=O)[C@H](CCC(=O)O)NC(=O)[C@H](CC(=O)O)NC(=O)[C@@H](N)Cc1c[nH]cn1)[C@@H](C)O)[C@@H](C)O)C(C)C)C(=O)N[C@@H](C)C(=O)N[C@@H](Cc1c[nH]c2ccccc12)C(=O)N[C@@H](CC(C)C)C(=O)N[C@H](C(=O)N[C@@H](CCCCN)C(=O)NCC(=O)N[C@@H](CCCNC(=N)N)C(=O)NCC(=O)O)C(C)C [GLP-1],% inhibition,0.0%
